Values after ≈ are worked out from the molar mass of the structure shown. Values joined by “and” are separate entries in the source; they are usually repeats but may differ in a detail not shown here. Equal entries are not always repeated.

Experimental findings from the ASAP Discovery antiviral challenge data (2025) are described below.

The conditions of data set [1]: mdck_mdr1.
Assay in data set [2]: not given
The source holds these as a separate data set.

With `C=C[C@H]1CN2CC[C@H]1C[C@@H]2[C@@H](O)c1ccnc2ccc(OC)cc12`, the Papp in data set [1] was 139 nm/s.
The compound `CC(C)c1nc2c(C(=O)Nc3cccc(CN)c3)cccc2[nH]1` gave a logD of 1.9. Also, the Papp in data set [1] came to 38.4 nm/s. Moreover, the solubility (kinetic) in data set [2] amounted to 316 µM (≈ 97.4 µg/mL).
Take `CC(C)n1cc2c(C(=O)Nc3ccc4c(c3)CNC4)cc(Cl)cc2n1`: the logD is 1.6. The same compound registered a Papp in data set [1] of 34 nm/s. The kinetic solubility in data set [2] was found to be 181 µM (≈ 64.2 µg/mL).
Take `CCc1cc(C(=O)Nc2cccc(CN)c2)sc1-c1ccc(Cl)cc1`: the logD was 4.3. This compound also displayed a Papp in data set [1] of 9.95 nm/s. For the same compound, in data set [2], the solubility (kinetic) was 7 µM (≈ 2.6 µg/mL).
The corresponding values for `CO[C@H]1C[C@H](n2ncc3c(C(=O)Nc4ccc5c(c4)CNC5)cc(Cl)cc32)C1` are 1.5, 16 nm/s and 340 µM (≈ 135 µg/mL).
For `C[C@H]1O[C@@H](O[C@H]2[C@@H](O)C[C@H](O[C@H]3[C@@H](O)C[C@H](O[C@H]4CC[C@@]5(C)[C@H](CC[C@@H]6[C@@H]5C[C@@H](O)[C@]5(C)[C@@H](C7=CC(=O)OC7)CC[C@]65O)C4)O[C@@H]3C)O[C@@H]2C)C[C@H](O)[C@@H]1O`, the Papp in data set [1] stood at 6 nm/s.
The same measure, in the same setting: under `Cc1ccc(NC(=O)c2cc(Cl)cc(NC(=O)OCc3ccccc3)c2)cc1CN` stands 0.873 nm/s.
The compound `Clc1ccc2[nH]cc(Cc3ccc(-c4nn[nH]n4)cc3)c2c1` registered a logD of 2.1. Further, the Papp in data set [1] was 84 nm/s.
`Cn1ncc2c(C(=O)Nc3ccc4c(c3)CNC4)cc(Br)cc21` had a logD of 1. In addition, in data set [1], the Papp was found to be 46.6 nm/s. Besides, the solubility (kinetic) in data set [2] worked out at 392 µM (≈ 146 µg/mL).
Compound `NCc1cc(Cl)cc(C(=O)Nc2ccc3c(c2)CNC3)c1` had a logD of 2.
`NCc1cccc(NC(=O)c2cc(Cl)cc(NC(=O)OCc3ccccc3)c2)c1` yielded a logD of 2.7. In data set [1], the Papp turned out to be 21.1 nm/s. For the same compound, the kinetic solubility in data set [2] is 89 µM (≈ 36.5 µg/mL).
The corresponding values for `NCc1cccc(NC(=O)c2cccn3cc(CN4CCCC4)nc23)c1` are 0.2, 52.5 nm/s and 332 µM (≈ 116 µg/mL).
The corresponding values for `O=C(Nc1cc(Cl)cc(-c2ccc3[nH]c(C(=O)O)cc3c2)c1)OCc1ccccc1` are 3.7, 6.1 nm/s and 356 µM (≈ 150 µg/mL).
For the compound `O=C(Nc1cc(Cl)cc(C(=O)Nc2cccc(-c3nnn[nH]3)c2)c1)OCc1ccccc1`, the logD is 3.7. In data set [1], the apparent permeability coefficient (Papp) came out at 50.6 nm/s. For the same compound, in data set [2], the solubility (kinetic) stood at 65 µM (≈ 29.2 µg/mL).
In turn, `O=C(Nc1cc(Cl)cc(C(=O)Nc2cccc(C3CCNCC3)c2)c1)OCc1ccccc1` came in with a Papp in data set [1] of 18 nm/s. This compound also gave a solubility (kinetic) in data set [2] of 126 µM (≈ 58.5 µg/mL).
The corresponding values for `O=C(Nc1cc(Cl)cc(C(=O)Nc2n[nH]c3c2CNC3)c1)OCc1ccccc1` are 14.4 nm/s and 26 µM (≈ 10.7 µg/mL).
Turning to `O=C(Nc1ccc2c(c1)CNC2)c1cc(Cl)cc2c1CCC2`, the pH-dependent lipophilicity (logD) was found to be 1.8. For the same compound, the apparent permeability (Papp) in data set [1] came to 25.7 nm/s. In addition, the kinetic solubility in data set [2] came to 335 µM (≈ 105 µg/mL).
`O=C(O)COc1cccc(NC(=O)c2cc(Cl)cc(NC(=O)OCc3ccccc3)c2)c1`: the logD turned out to be 1.8. In addition, in data set [1], the Papp was 11 nm/s. The compound also came in with a solubility (kinetic) in data set [2] of 360 µM (≈ 164 µg/mL).
The corresponding values for `O=C(O)Cn1ncc2cc(-c3cc(Cl)cc(NC(=O)OCc4ccccc4)c3)ccc21` are 2.6, 51.2 nm/s and 131 µM (≈ 57.1 µg/mL).
In the same order, the values of `O=C1Cc2c(cc(F)cc2C(=O)Nc2ccc3c(c2)CNC3)N1` are -0.2, 29 nm/s and 368 µM (≈ 115 µg/mL).
Consider `O=C1Cc2c(cccc2C(=O)Nc2ccc3c(c2)CNC3)N1`, for which the pH-dependent lipophilicity (logD) worked out at 0.3. For the same compound, in data set [1], the apparent permeability coefficient (Papp) was found to be 9.24 nm/s. Also, the kinetic solubility in data set [2] came out at 152 µM (≈ 44.6 µg/mL).
With `O=C1Cc2cc(C(=O)Nc3ccc4c(c3)CNC4)ccc2N1`, the Papp in data set [1] worked out at 8.73 nm/s. The solubility (kinetic) in data set [2] was 136 µM (≈ 39.9 µg/mL).
Turning to `C=CC[C@H]1NCc2cc(NC(=O)c3cc(F)cc4[nH]ncc34)ccc21` (racemic), the logD came to 1.7. The same compound returned a Papp in data set [1] of 38.6 nm/s. In data set [2], this compound returned a kinetic solubility of 356 µM (≈ 120 µg/mL).
The corresponding values for `CC(C)NC(=O)[C@H](Nc1ccc2c(c1)CNC2)c1cc(Cl)cc2[nH]ncc12` (racemic) are 0.5, 9.63 nm/s and 311 µM (≈ 119 µg/mL).
`CCCCNC(=O)[C@H](Nc1ccc2c(c1)CNC2)c1cc(Cl)cc(C2CC2)c1` (racemic) registered a log distribution coefficient (logD) of 2.3. The same compound came in with an apparent permeability (Papp) in data set [1] of 7 nm/s. In addition, the solubility (kinetic) in data set [2] turned out to be 379 µM (≈ 151 µg/mL).
The corresponding values for `CNC(=O)[C@H](Nc1cc(CN)cc(-c2nn[nH]n2)c1)c1cc(Cl)cc(C2CC2)c1` (racemic) are 1.5, 3.02 nm/s and 352 µM (≈ 145 µg/mL).
In the same order, the values of `CNC(=O)[C@H](Nc1cc(CN)cc(C(=O)O)c1)c1cc(Cl)cc(C2CC2)c1` (racemic) are 0, 9.4 nm/s and 335 µM (≈ 130 µg/mL).
With `CNC(=O)[C@H](Nc1ccc(-c2nnn[nH]2)cc1)c1cc(Cl)cc(C2CC2)c1` (racemic), the logD came out at 1.1. In data set [1], this compound yielded a Papp of 16 nm/s.
Consider `CNC(=O)[C@H](Nc1ccc2c(c1)CNC2)c1cc(Cl)cc(C2CC2)c1` (racemic), for which the pH-dependent lipophilicity (logD) is 0.9. In addition, the Papp in data set [1] came out at 15 nm/s. The kinetic solubility in data set [2] stood at 358 µM (≈ 127 µg/mL).
In the same order, the values of `CNC(=O)[C@H](Nc1ccc2c(c1)CNC2)c1cc(Cl)cc2[nH]c(-c3ccccc3)nc12` (racemic) are 1.8, 10.2 nm/s and 178 µM (≈ 76.9 µg/mL).
In turn, `CNC(=O)[C@H](Nc1cccc(-c2nn[nH]n2)c1)c1cc(Cl)cc2[nH]ncc12` (racemic) yielded a logD of 0.3. This compound also yielded a Papp in data set [1] of 8.63 nm/s. For the same compound, the solubility (kinetic) in data set [2] worked out at 347 µM (≈ 133 µg/mL).
In the same order, the values of `COCc1cc(Cl)cc([C@H](Nc2ccc3c(c2)CNC3)C(=O)NCC(F)F)c1` (racemic) are 0.2, 17 nm/s and 192 µM (≈ 78.7 µg/mL).
In the same order, the values of `COc1cc(C#N)cc([C@H](Nc2ccc3c(c2)CNC3)C(=O)NCC(F)F)c1` (racemic) are -0.4, 5 nm/s and 381 µM (≈ 147 µg/mL).
`COc1cc(Cl)cc([C@H](Nc2ccc3c(c2)CNC3)C(=O)NCC(F)F)c1` (racemic) gave a logD of 0.5. The compound also returned a Papp in data set [1] of 7 nm/s.
Take `Cc1cc([C@H](Nc2ccc3c(c2)CNC3)C(=O)NCC(F)F)cc(C(F)(F)F)c1` (racemic): the logD stood at 1. In data set [1], this compound gave a Papp of 7 nm/s.
For `Cc1nccn1C[C@H]1CCc2c(c3ccccc3n2C)C1=O` (racemic), the kinetic solubility in data set [2] stood at 127 µM (≈ 37.3 µg/mL).
`N#CCCNC(=O)[C@H](Nc1ccc2c(c1)CNC2)c1cc(Cl)cc(C2CC2)c1` (racemic): the pH-dependent lipophilicity (logD) amounted to 0.6. Also, in data set [1], the apparent permeability (Papp) came to 5 nm/s. The compound also came in with a solubility (kinetic) in data set [2] of 374 µM (≈ 148 µg/mL).
The corresponding values for `NCc1cc(C(=O)O)cc([C@@H]2C[C@H]2c2cc(Cl)cc(NC(=O)OCc3ccccc3)c2)c1` (racemic) are 2.7, 8.19 nm/s and 52 µM (≈ 23.4 µg/mL).
The corresponding values for `O=C(NCC(F)F)[C@H](Nc1cc2c(cc1Br)CNC2)c1cc(Cl)cc(C2CC2)c1` (racemic) are 2.9, 2 nm/s and 333 µM (≈ 161 µg/mL).
Regarding `O=C(NCC(F)F)[C@H](Nc1ccc2c(c1)CNC2)c1cc(Br)cc2nc[nH]c12` (racemic), the logD worked out at 0.4. This compound also had an apparent permeability (Papp) in data set [1] of 5 nm/s.
The compound `O=C(NCC(F)F)[C@H](Nc1ccc2c(c1)CNC2)c1cc(Cl)cc(C2CC2)c1` (racemic) displayed a logD of 1.6. For the same compound, in data set [1], the Papp is 15.5 nm/s. Moreover, in data set [2], the kinetic solubility was determined as 367 µM (≈ 149 µg/mL).
`O=C(NCC(F)F)[C@H](Nc1ccc2c(c1)CNC2)c1cc(Cl)cc2c1CCC2` (racemic): the logD is 1.2. The same compound gave a Papp in data set [1] of 9 nm/s.
Compound `O=C(NCC(F)F)[C@H](Nc1ccc2c(c1)CNC2)c1cc(Cl)cc2ccoc12` (racemic) gave a logD of 0.6. This compound also displayed a Papp in data set [1] of 21 nm/s. This compound gave a solubility (kinetic) in data set [2] of 187 µM (≈ 75.9 µg/mL).
The corresponding values for `O=C(NCC(F)F)[C@H](Nc1cnc2c(c1)CNC2)c1cc(Cl)cc(C2CC2)c1` (racemic) are 1.5, 8 nm/s and 362 µM (≈ 147 µg/mL).
In the same order, the values of `O=C(NCCCF)[C@H](Nc1ccc2c(c1)CNC2)c1cc(Cl)cc(C2CC2)c1` (racemic) are 1.2, 7 nm/s and 394 µM (≈ 158 µg/mL).
Regarding `O=C(Nc1cc(Cl)cc([C@H](Nc2cccc(-c3nn[nH]n3)c2)C(=O)NCc2ccccc2)c1)OCc1ccccc1` (racemic), the log distribution coefficient (logD) stood at 3.7. Moreover, the Papp in data set [1] turned out to be 6 nm/s.
Regarding `OCC#C[C@H](Nc1ccc2c(c1)CNC2)c1cc(Cl)cc2[nH]ncc12` (racemic), the logD was determined as 0.5. In data set [1], this compound showed a Papp of 5.92 nm/s. In data set [2], this compound displayed a solubility (kinetic) of 135 µM (≈ 47.6 µg/mL).
As to `CC(C)[C@H](Nc1ncnc2[nH]c(-c3cnn(C)c3C#N)cc12)c1ccc2c(n1)OCCO2` (single isomer, unassigned), the logD is 3.7 and 3.9. For the same compound, the Papp in data set [1] was 137 nm/s and 146 nm/s. Further, in data set [2], the kinetic solubility was 53 µM and 50 µM.
In turn, `CC(C)[C@H](Nc1ncnc2[nH]c(-c3cnn(CC(=O)N(C)C)c3)cc12)c1ccc2c(c1)S(=O)(=O)CCC2` (single isomer, unassigned) displayed a log distribution coefficient (logD) of 2.2. For the same compound, the Papp in data set [1] was 11.7 nm/s and 5.55 nm/s. Besides, the solubility (kinetic) in data set [2] is 361 µM and 256 µM.
In the case of `CC(C)[C@H](Nc1ncnc2[nH]c(C(=O)N[C@@H]3CCN(C)C3)cc12)c1ccc2c(c1)S(=O)(=O)CCC2` (single isomer, unassigned), the logD was 1.4 and 1.6. The kinetic solubility in data set [2] is 366 µM and 392 µM.
Consider `CC(C)[C@H](Nc1ncnc2[nH]cc(C(=O)NC3CC3)c12)c1ccc2c(c1)S(=O)(=O)CCC2` (single isomer, unassigned), for which the logD is 3.2 and 3. Besides, in data set [1], the Papp was 29.7 nm/s and 12.7 nm/s.
As to `O=C(NCC(F)F)[C@H](Nc1ccc2c(c1)CNC2)c1cc(Cl)cc(C2CC2)c1` (single isomer, unassigned), the logD was 1.3 and 1.4. For the same compound, in data set [1], the Papp was 13 nm/s and 19 nm/s. Also, the solubility (kinetic) in data set [2] is 326 µM and 139 µM.
